Measurements published in patent US12285403B2, “A2-73 as a therapeutic for insomnia, anxiety and agitation” (Anavex Life Sciences Corp., priority 2016, dated 2025).
Entries after “also recorded” stand apart in the source; their conditions may differ.

Experiments:
Type in all cases: in vivo, human
[1] = Systolic blood pressure monitored over the first 25 days of dosing in AD subjects
Description: An additional benefit of the therapeutic regimen disclosed herein is the beneficial control of systolic blood pressure in AD subjects taking daily oral dosages of A2-73 of from about 10 mg to about 50 mg. Systolic blood pressure was monitored over the first 25 days of dosing. A1-41 and A19-144 are similarly useful therapeutics.

[2] = test system: mild-to-moderate Alzheimer's disease patients; assay: Cogstate test battery, Phase 2a study; settings: over 31 weeks of treatment; FIG. 8; listed as ANAVEX 2-73, hydrochloride
Description: Although the present invention calls for methods of treating insomnia, some primary sleep disorders, such as circadian rhythm disorders, advanced sleep phase disorder also termed sleep onset insomnia, mid-nocturnal insomnia, early morning insomnia, hyper insomnia, trouble staying asleep, jet lag, narcolepsy, non-24-hour sleep-wake syndrome, include insomnia as a component of the disorder. Thus, the term “insomnia” should be understood to also include the insomnia component of these disorders. • Aβ—Amyloid beta is abbreviated as Aβ. • AD—Alzheimer's disease is abbreviated as AD. • ADCS-ADL—Alzheimer's Disease Cooperative Study Activities of Daily Living Inventory is abbreviated as ADCS-ADL. • Cogstate tasks—Cogstate tasks refers to Cogstate cognitive tests (Cogstate Alzheimer's Battery) using visual and verbal stimuli to ensure assessment. […] When a number of these individual tests are put together to form a test battery, a more complete picture of a person's cognitive state can be defined. • DPZ—Donepezil is abbreviated as DPZ. • EEG/ERP—EEG/ERP is a reference to ERP measured via EEG. • ERP—Event-related potential is abbreviated as ERP. • HAM-D—Hamilton Depression Rating Scale is abbreviated as HAM-D. • MCI—Mild cognitive impairment is abbreviated as MCI. • MMSE—MMSE refers to the Mini-Mental State Examination (MMSE) or Folstein test. […]

[3] = test system: mild-to-moderate Alzheimer's disease patients; assay: EEG/ERP (P300) target detection task, Phase 2a study; settings: for False Alarms / P300 Amplitude / Task Accuracy / Reaction Time: mean ± SEM; for False Alarms: baseline 3.4 ± 1.0, healthy control 1.1 ± 0.2; for P300 Amplitude: baseline 5.99 ± 0.58, healthy control 7.36 ± 0.39; for Task Accuracy: baseline 83.8 ± 3.8, healthy control 94.1 ± 1.1; for Reaction Time: baseline 559.0 ± 24.0, healthy control 458.6 ± 11.4
Description: An event-related potential (ERP) is the measured brain response that is the direct result of a specific sensory, cognitive, or motor event. More formally, it is any stereotyped electrophysiological response to a stimulus. The study of the brain in this way provides a noninvasive means of evaluating brain functioning. ERPs are measured by means of electroencephalography (EEG). Particular efficacy data measurements addressed cognition and function. Cognitive measures include MMSE and Cogstate battery. Functional measures were ADCS-ADL. Supportive Biomarker Measurements include ERP (P300): fundamental measures of synaptic network performance and target engagement. ERP target detection task measures is a direct measure of attention, speed of brain processing, and simple functional performance. 2-73 Rescues Cognitive Effects on a Cellular Level on the subjects of the Phase 2a study. […] 2-73 effect on synaptic networks and effect on cognition and behavior at daily doses of 10 mg-50 mg is shown. ERP peak measures (P300) are shown. The P300 (P3) wave is an event related potential (ERP) component elicited in the process of decision making. It is considered to be an endogenous potential, as its occurrence links not to the physical attributes of a stimulus, but to a person's reaction to it. More specifically, the P300 is thought to reflect processes involved in stimulus evaluation or categorization. ERP target detection task is a direct measure of attention, speed of brain. processing, and simple behavioral performance. Psychometric measures (Cogstate) cognitive measures: Detection: processing speed (psychomotor function), Identification: reaction time (attention), One Back: working memory (cognition), One Card Learning: visual learning (visual memory), ISLT: verbal learning, ISLT-delay: verbal memory. Psychometric measures (MMSE): cognitive measures. Behavioral measures (ADCS-ADL): behavioral measures.

CN(C)CC1CCOC1(c1ccccc1)c1ccccc1.Cl (centres unmarked) [A2-73, tetrahydro-N,N-dimethyl-2,2-diphenyl-3-furanmethanamine hydrochloride]
Change in mean systolic BP, baseline to Day 25 ([1]; Hypertension Stage 1: 140-159 mm Hg): −16 mm Hg
Day 25 Mean systolic BP ±SD ([1]; Hypertension Stage 1: 140-159 mm Hg, baseline 145 ± 3): 129 ± 12 mm Hg
Change in mean systolic BP, baseline to Day 25 ([1]; Hypertension Stage 2: 160-179 mm Hg): −22 mm Hg
Day 25 Mean systolic BP ±SD ([1]; Hypertension Stage 2: 160-179 mm Hg, baseline 170 ± 8): 148 ± 19 mm Hg
Change in mean systolic BP, baseline to Day 25 ([1]; Hypertensive crisis >180 mm Hg): −27 mm Hg
Day 25 Mean systolic BP ±SD ([1]; Hypertensive crisis >180 mm Hg, baseline 185 ± 0): 159 ± 43 mm Hg
Change in mean systolic BP, baseline to Day 25 ([1]; Pre Hypertension 120-139 mm Hg): −9 mm Hg
Day 25 Mean systolic BP ±SD ([1]; Pre Hypertension 120-139 mm Hg, baseline 131 ± 6): 122 ± 15 mm Hg
Change in mean systolic BP, baseline to Day 25 ([1]; baseline classification <120 mm Hg): 8 mm Hg
Day 25 Mean systolic BP ±SD ([1]; baseline classification <120 mm Hg, baseline 115 ± 2, oral daily 10-50 mg): 123 ± 11 mm Hg
Systolic blood pressure in subjects with high-normal systolic blood pressure ([1]; first 25 days of dosing): rose
Systolic blood pressure in hypertensive subjects ([1]; first 25 days of dosing, greater reduction for increasingly hypertensive subjects): significantly reduced
Cogstate tasks: psychomotor function, attention and working memory [2]: sustained benefit; also recorded: benefits over baseline
False Alarms ([3]; 5 Week): 1.0 ± 0.5%
P300 Amplitude ([3]; 5 Week, daily 10 mg-50 mg): 7.09 ± 0.72 μV
Task Accuracy ([3]; 5 Week): 92.6 ± 2.4%
Reaction Time ([3]; 5 Week): 492.6 ± 23.8 ms
All tested areas (ERP, Cogstate, MMSE, ADCS-ADL) vs starting baseline ([3]; 5 weeks, daily 10 mg-50 mg, FIG. 9): improvement
False Alarms ([3]; 17 Week): 1.2 ± 0.9%
P300 Amplitude ([3]; 17 Week): 6.38 ± 0.61 μV
Task Accuracy ([3]; 17 Week): 92.2 ± 3.9%
Reaction Time ([3]; 17 Week): 498.8 ± 24.8 ms
False Alarms ([3]; 31 Week): 2.6 ± 1.2%
P300 Amplitude ([3]; 31 Week): 5.93 ± 0.77 μV
Task Accuracy ([3]; 31 Week): 88.1 ± 4.4%
Reaction Time ([3]; 31 Week): 521.8 ± 28.1 ms
